Experiments:
[1] = Determination of the maximum tolerated dose (MTD); conditions: mouse, in vivo, ip; B6D2F1/Jico mice, single intraperitoneal administration, survival over 14 days, doses 2.5 to 160 mg/kg; read-out: DMT (mg/kg) (Maximum Tolerated Doses)
Procedure: (§1) 2—Determination of the Maximum Tolerated Dose (MTD)
(§2) The evaluation of the maximum tolerated dose was carried out on B6D2F1/Jico mice aged from 4 to 6 weeks. The compounds were administered intraperitoneally at increasing doses ranging from 2.5 to 160 mg/kg. The value of the MTD (expressed in mg/kg) is determined from the observation of the survival rates of the animals over a period of 14 days after a single administration of the product under consideration. The change in the weight of the animals is also monitored over this period. When that the value of the MTD is greater than 160 mg/kg, the value of the MTD is categorized as 160 mg/kg by default.

[2] = test system: HS-MXT tumours; test: In vivo antitumour activity, hormone-sensitive mouse mammary adenocarcinoma MXT (HS-MXT), tumour growth; conditions: 5 mg/kg intraperitoneally; for Tumour area (expressed as %): decrease (−) or increase (+) in HS-MXT tumour area vs control on the 31st day after grafting, 9 administrations
Procedure: The tests were carried out on models of:
hormone-sensitive mouse mammary adenocarcinoma MXT (HS-MXT),
The model of mouse mammary adenocarcinoma MXT of Watson C. et al. (Cancer Res., 1977; […]: 3344-48), grafted onto B6D2F1/Jico mice aged from 4 to 6 weeks, is derived from the mammary gland milk ducts. Initially hormone-sensitive (HS-MXT model), the differentiated tumour develops in the direction of an undifferentiated hormone-insensitive tumour (HI-MXT model). […] This is the case, for example, with cyclophosphamide, etoposide or adriamycin.
(§3) When the MTD value of a product was determined, its in vivo antitumour activity was characterized at the MTD/2, MTD/4 and MTD/8 doses on the models of mammary adenocarcinoma of mouse origin HS-MXT and of mouse mammary carcinoma HI-MXT and on the model of subcutaneous lymphoma L 1210.
(§4) In all the examples presented below, whatever the model, the control condition is represented by a batch of 9 or 15 mice to which is administered, for 3 consecutive weeks and at the rate of 3 administrations (Monday, Wednesday and Friday) per week, a volume of 0.2 ml of physiological saline comprising the solvent used to dissolve the various compounds of formula (I) and (Ia) used.
i)—The tumour growth was evaluated by measuring twice weekly (Monday and Friday) the area of the grafted HS-MXT, HI-MXT or L 1210 tumours. This area is calculated by multiplying the value of the two greatest perpendicular axes of the tumour. The value of these axes is measured using a sliding caliper.
The influence of the two products CRL 8293 and CRL 8294 on the growth of HS-MXT tumours will be presented below by way of example. Each batch of mice grafted with the HS-MXT tumours relating to a given experimental condition comprises 9 animals.
The product CRL 8293 is administered intraperitoneally. The first injection of the product is carried out on the seventh day postgrafting (D7) at the rate of 3 injections per week (Monday, Wednesday and Friday) for 3 consecutive weeks and at a dose of 5 mg/kg.
The product CRL 8294 is administered alone by the intraperitoneal route. The first injection of the product is carried out on the seventh day postgrafting (D7) at the rate of 3 injections per week (Monday, Wednesday and Friday) for 3 consecutive weeks and at a dose of 5 mg/kg.
The decreases (−) or the increases (+) in the area of the HS-MXT tumours induced with treatments 10 and 20 with respect to the control condition on the 31st day after the tumour grafting, i.e. after the 9 administrations provided in the experimental protocol of the 2 products CRL 8293 and CRL 8294, are shown, as percentage, in the following Table IV. 100% of the control animals are still alive on the 31st day postgrafting.

[3] = test system: B6D2F1/Jico mice; test: Determination of the maximum tolerated dose (MTD); conditions: mouse, in vivo, ip
Procedure: as §1, §2

[4] = test system: lymphoma L 1210; test: In vivo antitumour activity, subcutaneous lymphoma L 1210, survival (T/C); parameters: species or system mouse
Procedure: The model of lymophoma L 1210 is a model of L 1210 leukemia cells of mouse origin grafted subcutaneously in the mouse. They give rise, in 100% of cases, to a rapid-growth subcutaneous solid tumour (L 1210 s.c.).
as §3, §4
ii)—The survival rate of the mice is calculated in the form or a ratio T/C, where: [formula]
This ratio represents the mean survival time of the […] of the batch of treated mice with respect to the mean survival time of the median mouse of the batch of control mice. Thus, a molecule induces a significant (P<0.05) increase in the survival of the animals when the T/C index exceeds 130%. On the other hand, it has a toxic effect when this T/C value is less than 70%. […]

SMILES | MTD at 14 days [1] | growth of the HS-MXT tumours (in words) [2] | Tumour area (expressed as %) [2] | DMT (mg/kg) (Maximum Tolerated Doses) [3] | mean survival time of the median mouse (in words) ([4]; subcutaneous lymphoma L 1210, vs control mice) | T/C (expressed a %) ([4]; survival ratio treated/control, L 1210 s.c., 1.25 mg/kg intraperitoneally, 3 injections per week for 3 weeks from D7)
O=C1c2cccnc2-c2nccc3ccnc1c23 [CRL 8293, 7H-Pyrido[4,3,2-de][1,10]phenanthroline-7-one] | 10 mg/kg | very highly significant decrease | −45% | – | – | –
O=C1c2ncccc2-c2nccc3ccnc1c23 [CRL 8294, 7H-Pyrido[4,3,2-de][1,7phenanthroline-7-one] | – | very highly significant decrease | −64% | 10 mg/kg | significant extension | 136%

Reference: patent US6809096B1, “Phenanthroline-7-one derivatives and their therapeutic uses” (Laboratoire L. Lafon, priority 1999, dated 2004)
